“Also recorded” adds a separate entry of the source.

One experiment has as its system BT474 cells. Briefly: RNA sequencing of BT474 cells under hypoxia and low lipid stress. It is filed as cell-based, human. The conditions noted are these: H1, RNA sequencing. As to the method: ACSS2 affects histone and transcription factor acetylation in the nucleus of cells which then affects gene transcription. It was thus tested if inhibition of ACSS2 affects hypoxia and lipid depletion induced transcriptional stress responses. BT474 cells were incubated in normoxic, nutrient replete conditions (N10) and in hypoxic, low lipid conditions (H1). […] Additional analysis also found significant upregulation of 30 genes related to fatty acid synthesis (FIG. 3D).
It was then compared how many of the 1075 hypoxia and low lipid stress responsive genes were affected by siRNA mediated knockdown of ACSS2 (siACSS2) and VY-3-135 treatment.

A further experiment relates to Brpkp110 tumors. Briefly: Brpkp110 tumor xenograft growth in NSG mice. The experiment is classed as in vivo, mouse. The note with it: daily intraperitoneal injection for two weeks, 100 mg/kg (FIG. 5E). As to the method:
For BT474 mouse xenograft studies 5-6 week old female NSG […] were anesthetized and one 17β-estradiol 60 day release pellet (Innovative Research of America Cat. No. SE-121) was injected subcutaneously via 10 gauge precision trochar into the lateral side of the neck between the ear and shoulder. 24 hours later 10^5 BT474 luciferase positive cells in 100 μl PBS:matrigel (growth factor reduced) were injected subcutaneously into the hind limb. For A7C11 and Brpkp110 xenografts, 5×10^5 cells in 100 μl PBS:Matrigel (growth factor reduced Corning Cat. No. 356231) were subcutaneously injected into the hindlimb of 5-6 week old female NSG mice […]. Following tumor establishment in all groups, mice were randomized and treated intraperitoneally (IP) daily with vehicle (10% DMSO, 10% absolute ethanol, 20% solutol, 60% water containing 0.5% Tween20) or 100 mg/kg VY-3-135 as indicated in the figure legend. Tumors were measured thrice weekly via caliper measurement and tumor volume calculated as (L×W^2)/2 (where L is the longer of the 2 measurements). At the study conclusion all tumors were resected and processed fresh or flash frozen in liquid nitrogen and stored at −80° C. for downstream analysis.
Tumor bearing mice were given daily intraperitoneal injection of VY-3-135 for two weeks. […]

As for `CCn1c(C(O)(c2ccccc2)c2ccccc2)nc2ccc(C(=O)NC[C@@H](C)O)cc21` [VY-3-135, (R)-1-ethyl-2-(hydroxydiphenylmethyl)-N-(2-hydroxypropyl)-1H-benzo[d]imidazole-6-carboxamide], in the experiment on BT474 cells, the “transcriptional regulation of genes in response to hypoxia and low lipid stress” value is “has a minimal effect on the transcriptional regulation of genes in response to hypoxia and low lipid stress”. Also, the Brpkp110 tumor growth entry in the experiment on Brpkp110 tumors was “causes a significant decrease in Brpkp110 tumor growth; also recorded: caused significant reduction in Brpkp110 tumor growth”.

The values are drawn from patent US12281084B2, “Acetyl-CoA synthetase 2 (ACSS2) inhibitors and methods using same” (The Wistar Institute, priority 2019, dated 2025).
